# Results as given in ChEMBL document CHEMBL3045635, “Synthesis and in vitro antimicrobial evaluation of novel 2-amino-6-(phenylthio)-4-(2-(phenylthio)quinolin-3-yl)pyridine-3,5-dicarbonitriles” (2013).
# How the values were obtained:
# Type in all cases: functional
# [1] = tested on: Aspergillus fumigatus; experiment: Antifungal activity against Aspergillus fumigatus MTCC 3008 after 48 hr by broth microdilution method
# [2] = tested on: Clostridium tetani; experiment: Antibacterial activity against Clostridium tetani MTCC 449 after 24 hr by broth microdilution method; conditions: MTCC 449, 24 h
# [3] = tested on: Candida albicans; experiment: Antifungal activity against Candida albicans MTCC 227 after 48 hr by broth microdilution method
# [4] = tested on: Bacillus subtilis; experiment: Antibacterial activity against Bacillus subtilis MTCC 441 after 24 hr by broth microdilution method; conditions: MTCC 441, 24 h
# [5] = tested on: Streptococcus pneumoniae; experiment: Antibacterial activity against Streptococcus pneumoniae MTCC 1936 after 24 hr by broth microdilution method; conditions: MTCC 1936, 24 h
# [6] = tested on: Salmonella typhi; experiment: Antibacterial activity against Salmonella enterica subsp. enterica serovar Typhi MTCC 98 after 24 hr by broth microdilution method; conditions: MTCC 98, 24 h
# [7] = tested on: Escherichia coli; experiment: Antibacterial activity against Escherichia coli MTCC 443 after 24 hr by broth microdilution method; conditions: MTCC 443, 24 h
# [8] = tested on: Vibrio cholerae; experiment: Antibacterial activity against Vibrio cholerae MTCC 3906 after 24 hr by broth microdilution method; conditions: MTCC 3906, 24 h
Molecule,"MIC ([1]; MTCC 3008, 48 h) [µg/mL]",MIC [2] [µg/mL],"MIC ([3]; MTCC 227, 48 h) [µg/mL]",MIC [4] [µg/mL],MIC [5] [µg/mL],MIC [6] [µg/mL],MIC [7] [µg/mL],MIC [8] [µg/mL],MIC [1] [µg/mL],MIC [3] [µg/mL]
Cc1ccc2nc(Sc3ccccc3)c(C=O)cc2c1,> 1000,250,> 1000,500,500,200,200,250,,
Cc1ccc2nc(Sc3ccc(Cl)cc3)c(-c3c(C#N)c(N)nc(Sc4ccc(Cl)cc4)c3C#N)cc2c1,500,500,500,500,500,100,50,200,,
Cc1ccc(Sc2nc3ccc(C)cc3cc2-c2c(C#N)c(N)nc(Sc3ccccc3)c2C#N)cc1,500,500,> 1000,250,250,200,100,250,,
O=Cc1cc2ccccc2nc1Sc1ccccc1,1000,250,250,200,200,250,200,200,,
N#Cc1c(N)nc(Sc2ccccc2)c(C#N)c1-c1cc2ccccc2nc1Sc1ccccc1,500,500,250,500,500,200,250,200,,
Cc1ccc(Sc2nc3ccccc3cc2-c2c(C#N)c(N)nc(Sc3ccccc3)c2C#N)cc1,> 1000,200,500,250,250,125,200,200,,
Cc1ccc(Sc2nc3ccccc3cc2-c2c(C#N)c(N)nc(Sc3ccc(C)cc3)c2C#N)cc1,1000,250,1000,250,200,250,250,200,,
Cc1ccc(Sc2nc(N)c(C#N)c(-c3cc4cc(C)ccc4nc3Sc3ccccc3)c2C#N)cc1,500,200,1000,500,250,100,250,500,,
O=Cc1cc2ccccc2nc1Sc1ccc(Cl)cc1,> 1000,200,1000,250,100,250,250,200,,
Cc1ccc2nc(Sc3ccc(Cl)cc3)c(-c3c(C#N)c(N)nc(Sc4ccccc4)c3C#N)cc2c1,> 1000,250,1000,250,250,200,62.5,100,,
Cc1ccc2nc(Sc3ccc(Cl)cc3)c(C=O)cc2c1,1000,500,200,500,500,125,100,100,,
N#Cc1c(N)nc(Sc2ccc(Cl)cc2)c(C#N)c1-c1cc2ccccc2nc1Sc1ccc(Cl)cc1,1000,500,500,250,100,200,200,200,,
NYSTATIN,,,,,,,,,100,100
Cc1ccc(Sc2nc3ccc(C)cc3cc2-c2c(C#N)c(N)nc(Sc3ccc(C)cc3)c2C#N)cc1,1000,250,250,100,200,125,200,250,,
